According to patent US4775684A, “1,3-dioxane ethers” (Imperial Chemical Industries PLC, priority 1985, dated 1988):

Key:
rat aortal strip = biological target: T1, rat aortal strip (Rattus norvegicus, UniProt P34978); experiment: rat aortal strip model (procedure (a)), agonist U46619; type: cell-based; details: read-out: pA2 (converted)
T1 construct: rat aortal strip model; from tissue; host or cells: rat aorta strip
T1 sequence (P34978 1-341): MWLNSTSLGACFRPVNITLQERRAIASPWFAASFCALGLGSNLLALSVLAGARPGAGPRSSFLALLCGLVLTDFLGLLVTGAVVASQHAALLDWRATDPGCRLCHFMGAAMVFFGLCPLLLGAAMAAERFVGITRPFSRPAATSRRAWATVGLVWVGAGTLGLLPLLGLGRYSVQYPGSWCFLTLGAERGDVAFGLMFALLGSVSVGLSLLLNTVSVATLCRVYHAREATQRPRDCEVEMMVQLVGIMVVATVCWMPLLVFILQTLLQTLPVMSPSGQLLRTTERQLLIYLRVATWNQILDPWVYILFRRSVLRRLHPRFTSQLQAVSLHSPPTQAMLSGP
From the text: As stated earlier, the compounds of formula I are antagonists of one or more of the actions of TXA2, for example certain of its actions on blood platelets, the vasculature and/or the lung.
(a) The rabbit aortal strip model devised by Piper and Vane (Nature, 1969, 223, 29-35) or the rat aortal strip model developed by Kennedy et alia (Prostaglandins, 1982, 24, 667-689), using as agonist the TXA2 mimtic agent known as U46619 (described by R. L. Jones et alia, in "Chemistry, Biochemistry and Pharmacological Activity of Prostanoids" edited by S. M. Roberts and F. Scheinmann, at page 211, Pergamon Press, 1979);

[1] = biological target: T2, U46619 stimulated platelet aggregation (Homo sapiens, UniProt P21731); experiment: blood platelet aggregation test (procedure (b)), U46619 stimulated aggregation of human citrated platelet-rich plasma; type: cell-based; details: U46619, averaged over several concentrations
T2 construct: human, citrated platelet-rich plasma; endogenous in cells; host or cells: human platelets in citrated platelet-rich plasma
T2 sequence (P21731 1-343): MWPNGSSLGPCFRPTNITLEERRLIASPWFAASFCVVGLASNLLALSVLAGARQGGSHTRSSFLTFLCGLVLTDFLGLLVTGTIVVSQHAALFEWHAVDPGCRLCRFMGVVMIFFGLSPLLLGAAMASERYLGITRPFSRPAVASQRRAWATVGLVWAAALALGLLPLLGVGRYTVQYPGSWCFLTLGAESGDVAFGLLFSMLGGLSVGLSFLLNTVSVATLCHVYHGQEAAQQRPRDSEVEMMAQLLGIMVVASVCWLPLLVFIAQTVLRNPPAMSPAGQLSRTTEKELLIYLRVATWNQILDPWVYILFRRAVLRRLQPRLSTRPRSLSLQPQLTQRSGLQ
From the text: (b) a blood platelet aggregation test based on that described by Born (Nature, 1962, 194, 927-929) and involving:
(i) aggregating human, citrated platelet-rich plasma by addition of the TXA2 mimetic agent U46619 so that a dose-response curve is generated;
(ii) generating a dose-response curve for U46619 stimulated platelet aggregation in the presence of increasing amounts of test compound (generally in the range, 10^-5 M to 10^-10 M); and
(iii) calculating a KB value indicating potency of TXA2 antagonism for the test compound, averaged over several concentrations, from the calculated 50% response value for U46619 aggregation in the presence and absence of test compound; and […]

- Kb (rat aortal strip): 0.195 nM
- Kb [1]: 17.5 nM
SMILES: CC(C)(Oc1ccccc1)[C@@H]1OC[C@H](C/C=C\CCC(=O)O)[C@H](c2ccccc2O)O1 (relative stereo) [Example 6, 4(Z)-6-([2,4,5-cis]-2-[1-methyl-1-phenoxyethyl]-4-o-hydroxyphenyl-1,3-dioxan-5-yl)hexenoic acid]
